Test results from patent publication US11117859B1, “Pleuromutilin hippuric acid ester with antibacterial activity and a method of preparing the same” (SHAANXI UNIVERSITY OF SCIENCE AND TECHNOLOGY, priority 2021, dated 2021).

Key:
Format in all cases: cell-based
[1] = system: multi-resistant Staphylococcus aureus 171; assay: paper diffusion method drug sensitivity test, MRSA-171; conditions: for Zone of Inhibition: MRSA-171, 30 μg/tablet paper disc (6.35 mm), LB plate, 37° C., 24 h; for inhibitory effect (in words): multi-drug resistant Staphylococcus aureus 171, 30 μg/tablet
Procedure: (§1) The antimicrobial efficacy was determined by a paper diffusion method drug sensitivity test.
(§2) Experimental strains: multi-resistant Staphylococcus aureus 171, multi-resistant Staphylococcus aureus 575, multi-resistant Staphylococcus aureus 596. The experimental strain was identified by Huashan Hospital, Fudan University (Institute of Antibiotic of Fudan University).
(§3) Drug sensitive paper: The drug sensitive paper was a special drug sensitive paper with a diameter of 6.35 mm and a water absorption of 0.02 mL. The control drug was vancomycin (30 μg/tablet); the test drugs were pleuromutilin (30 μg/tablet), hippuric acid (30 μg/tablet) and pleuromutilin hippuric acid ester (30 μg/tablet).
(§4) Reagents: LB agar medium, LA broth medium, 0.5% DMSO solution.
(§5) The experimental strains were inoculated in non-selective medium and placed in air at 37° C. for 24 h. A single colony that grows well and inoculate it into broth medium was incubate at 35° C.±2° C. for 6 hours, and LA broth medium was used to calibrate the concentration of the bacterial solution to 0.5 Mie turbidimetric tube (1.5×10^8 CFU/mL). A bacterial suspension was obtained.
(§6) LB dry powder was weighed, sterilized at 103.4 Kpa, 121.3° C. high-pressure steam for 15 min, and then placed it in a 40° C.-50° C. water bath. A sterile empty plate (inner diameter 9 cm) was placed on the surface of the ultra-clean table water table, and […] was poured to the plate. The thickness of each plate was 3 mm to 4 mm. After the plate was cooled at room temperature, it was stored in the refrigerator at 2° C.-8° C. A sterile cotton swab was used to dip the bacterial solution and ti evenly coat the surface of the LB plate 3 times. After inoculation of the bacterial suspension, the LB plate was dried at room temperature for 3 min to 5 min. Sterile forceps were used to closely attach the antibacterial drug paper to the dish. The dish was put upside down and placed in a 37° C. incubator for 24 h. The results were observed by measuring the diameter. Taking 0.5% DMSO solution as a negative control, the antibacterial activity is expressed by the diameter of the inhibition zone. The inhibition zone ≥17 mm, sensitive; the inhibition zone of 15 mm-16 mm, intermediary; the inhibition zone ≤14 mm, drug resistance.

[2] = system: multi-resistant Staphylococcus aureus 596; assay: paper diffusion method drug sensitivity test, MRSA-596; conditions: for Zone of Inhibition: MRSA-596, 30 μg/tablet paper disc (6.35 mm), LB plate, 37° C., 24 h; for inhibitory effect (in words): multi-drug resistant Staphylococcus aureus 596, 30 μg/tablet
Procedure: as §1, §2, §3, §4, §5, §6

[3] = system: multi-resistant Staphylococcus aureus 575; assay: paper diffusion method drug sensitivity test, MRSA-575; conditions: for Zone of Inhibition: MRSA-575, 30 μg/tablet paper disc (6.35 mm), LB plate, 37° C., 24 h; for inhibitory effect (in words): multi-drug resistant Staphylococcus aureus 575, 30 μg/tablet
Procedure: as §1, §2, §3, §4, §5, §6

C=C[C@]1(C)C[C@@H](OC(=O)CO)[C@]2(C)[C@H](C)CC[C@]3(CCC(=O)[C@H]32)[C@@H](C)[C@@H]1O [Pleuromutilin]
Zone of Inhibition [1]: 0 mm | inhibitory effect (in words) [1]: no inhibitory effect | Zone of Inhibition [2]: 0 mm | inhibitory effect (in words) [2]: no inhibitory effect | Zone of Inhibition [3]: 0 mm | inhibitory effect (in words) [3]: no inhibitory effect

CN[C@H](CC(C)C)C(=O)N[C@H]1C(=O)N[C@@H](CC(N)=O)C(=O)N[C@H]2C(=O)N[C@H]3C(=O)N[C@H](C(=O)N[C@H](C(=O)O)c4cc(O)cc(O)c4-c4cc3ccc4O)[C@H](O)c3ccc(c(Cl)c3)Oc3cc2cc(c3O[C@@H]2O[C@H](CO)[C@@H](O)[C@H](O)[C@H]2O[C@H]2C[C@](C)(N)[C@H](O)[C@H](C)O2)Oc2ccc(cc2Cl)[C@H]1O [Vancomycin]
Zone of Inhibition [1]: 15 mm | Zone of Inhibition [2]: 23 mm | Zone of Inhibition [3]: 17 mm

C=C[C@]1(C)C[C@@H](OC(=O)COC(=O)CNC(=O)c2ccccc2)[C@]2(C)CC[C@@H](C)[C@@]3(CCC(=O)[C@@H]23)[C@@H](C)[C@@H]1O [Pleuromutilin hippuric acid ester, (3aS,4R,5S,6S,8R,9R,9aR,12R)-5-hydroxy-4,6,9,12-tetramethyl-1-oxo-6-vinyldecahydro-3a,9-propanocyclopenta[8]annulen-8-yl 2-(2-benzamidoacetoxy)acetate]
Zone of Inhibition [1]: 14 mm | inhibitory effect (in words) [1]: strong inhibitory effects | Zone of Inhibition [2]: 25 mm | inhibitory effect (in words) [2]: strong inhibitory effects | Zone of Inhibition [3]: 15 mm | inhibitory effect (in words) [3]: strong inhibitory effects

O=C(O)CNC(=O)c1ccccc1 [Hippuric acid]
Zone of Inhibition [1]: 0 mm | inhibitory effect (in words) [1]: no inhibitory effect | Zone of Inhibition [2]: 0 mm | inhibitory effect (in words) [2]: no inhibitory effect | Zone of Inhibition [3]: 0 mm | inhibitory effect (in words) [3]: no inhibitory effect
